Test results taken from patent US10716828B2, “Methods of modulating cellular homeostatic pathways and cellular survival” (Dana-Farber Cancer Institute, Inc., priority 2007, dated 2020).

Tested on: islets
Test: Toxicity to islets
Type: cell-based, mouse
Settings: 3 μM

For CSCC[C@@H]1NC(=O)[C@@](C)(NC(=O)[C@H](CCCNC(=N)N)NC(=O)[C@H](CC(C)C)NC(=O)[C@H](CCC(=O)O)NC(=O)[C@H](CCCNC(=N)N)NC(=O)CNC(=O)[C@H](Cc2ccc(O)cc2)NC(=O)[C@H](CCCNC(=N)N)NC(=O)[C@H](CCC(N)=O)NC(=O)[C@H](C)NC(=O)[C@H](C)NC(=O)[C@H](Cc2c[nH]c3ccccc23)NC(=O)[C@H](CC(C)C)NC(=O)[C@@H](N)CC(N)=O)CCCC=CCCC[C@@](C)(C(=O)N[C@@H](Cc2ccccc2)C(=O)N[C@H](C(=O)N[C@@H](CC(=O)O)C(=O)N[C@@H](CO)C(=O)N[C@@H](Cc2ccccc2)C(=O)N[C@@H](CCCCN)C(=O)N[C@@H](CCCCN)C(=O)O)C(C)C)NC(=O)[C@H](CC(=O)O)NC(=O)[C@H](CO)NC1=O [BAD SAHBA], the toxicity to islets was “not toxic to islets”.
